Data set [1] concerns RG2. Kind of data set: Synergistic cytotoxicity against rat RG2 cells assessed as combination index at 89.9 uM after 48 hrs in presence of 309 uM TMZ by MTT assay. It counts as functional.
Data set [2] deals with Serine/threonine-protein kinase AKT (Homo sapiens) (UniProt P31751+Q9Y243+P31749). In words: Inhibition of AKT phosphorylation at S473 residues in human DBTRG-05MG cells at 112.4uM after 48 hrs by Western blot analysis. In kind it is cell-based. In general terms: A western blot detects proteins with antibodies after separation by electrophoresis.
Sequence of Serine/threonine-protein kinase AKT (Homo sapiens) (P31749 whole entry, looked up): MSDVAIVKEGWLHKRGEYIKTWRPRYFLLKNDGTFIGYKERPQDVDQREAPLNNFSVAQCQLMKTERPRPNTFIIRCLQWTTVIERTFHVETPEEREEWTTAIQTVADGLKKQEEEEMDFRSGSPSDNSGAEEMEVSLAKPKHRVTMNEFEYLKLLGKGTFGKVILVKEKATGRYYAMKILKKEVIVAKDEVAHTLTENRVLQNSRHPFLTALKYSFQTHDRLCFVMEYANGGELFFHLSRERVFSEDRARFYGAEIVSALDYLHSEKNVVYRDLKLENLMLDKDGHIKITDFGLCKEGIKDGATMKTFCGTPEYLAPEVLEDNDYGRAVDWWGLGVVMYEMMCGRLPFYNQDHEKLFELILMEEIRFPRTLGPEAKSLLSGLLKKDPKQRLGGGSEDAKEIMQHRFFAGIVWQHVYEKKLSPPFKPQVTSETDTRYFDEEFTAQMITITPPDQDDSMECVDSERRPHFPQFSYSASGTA
Sequence of Serine/threonine-protein kinase AKT (Homo sapiens) (P31751 whole entry, looked up): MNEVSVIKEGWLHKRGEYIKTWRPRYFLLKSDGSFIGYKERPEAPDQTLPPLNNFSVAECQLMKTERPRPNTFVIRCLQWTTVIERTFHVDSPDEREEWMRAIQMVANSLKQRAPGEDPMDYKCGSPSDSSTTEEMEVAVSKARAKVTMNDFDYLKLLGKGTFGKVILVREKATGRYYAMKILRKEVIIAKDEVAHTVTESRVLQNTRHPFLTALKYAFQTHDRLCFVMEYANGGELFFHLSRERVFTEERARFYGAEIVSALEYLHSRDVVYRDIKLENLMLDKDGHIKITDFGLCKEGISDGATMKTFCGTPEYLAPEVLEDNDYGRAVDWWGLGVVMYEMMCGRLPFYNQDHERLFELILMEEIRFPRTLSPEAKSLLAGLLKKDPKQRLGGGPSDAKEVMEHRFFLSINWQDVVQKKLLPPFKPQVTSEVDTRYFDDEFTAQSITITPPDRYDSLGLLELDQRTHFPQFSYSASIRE
Sequence of Serine/threonine-protein kinase AKT (Homo sapiens) (Q9Y243 whole entry, looked up): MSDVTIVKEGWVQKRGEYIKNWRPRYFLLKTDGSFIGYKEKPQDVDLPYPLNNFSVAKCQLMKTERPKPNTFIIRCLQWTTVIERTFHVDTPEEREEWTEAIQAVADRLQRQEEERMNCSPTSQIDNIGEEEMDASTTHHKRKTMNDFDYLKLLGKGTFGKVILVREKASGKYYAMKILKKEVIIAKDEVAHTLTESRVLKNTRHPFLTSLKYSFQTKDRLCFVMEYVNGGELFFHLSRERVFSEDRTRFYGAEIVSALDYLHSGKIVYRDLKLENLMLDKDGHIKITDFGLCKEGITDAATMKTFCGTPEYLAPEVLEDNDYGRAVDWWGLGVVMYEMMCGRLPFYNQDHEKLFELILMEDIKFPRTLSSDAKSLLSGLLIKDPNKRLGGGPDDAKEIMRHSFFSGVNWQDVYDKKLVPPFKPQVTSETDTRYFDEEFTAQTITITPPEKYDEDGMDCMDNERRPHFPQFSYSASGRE
Data set [3] concerns DBTRG-05MG. In words: Induction of apoptosis in human DBTRG-05MG cells assessed as cleaved caspace-3 expression at 112.4 uM after 48 hrs in presence of TMZ by Western blot analysis (reference value: 1). It counts as functional.
Data set [4] concerns DBTRG-05MG. Kind of data set: Synergistic cytotoxicity against human DBTRG-05MG cells assessed as combination index at 134.9 uM after 48 hrs in presence of 103 uM TMZ by MTT assay. In kind it is functional.
Data set [5] can be described thus: Toxicity in BALB/c mouse xenografted with DBTRG-05MG cells assessed as inflammatory cell infiltration score in liver at 75 mg/kg, sc co-treated with TMZ for 18 days by H and E staining-based bright field microscopic analysis. Conditions: in vivo, 432 h, time 18 day. It counts as organism-based.
The subject of data set [6] is RG2. Kind of data set: Induction of cell cycle arrest in rat RG2 cells assessed as CyclinD1 expression at 112.4 uM after 48 hrs in presence of TMZ by Western blot analysis (reference value: 1). It counts as functional.
Data set [7] relates to RG2. Kind of data set: Synergistic cytotoxicity against rat RG2 cells assessed as combination index at 112.4 uM after 48 hrs in presence of 309 uM TMZ by MTT assay. It counts as functional.
The test system of data set [8] is RG2. Kind of data set: Induction of cell cycle arrest in rat RG2 cells assessed as CDK4 expression at 112.4 uM after 48 hrs in presence of TMZ by Western blot analysis (reference value: 1). It counts as functional.
In data set [9] the test system is RG2. In words: Induction of cell cycle arrest in rat RG2 cells assessed as accumulation at G0/G1 phase at 112.4 uM after 24 hrs in presence of TMZ by propidium iodide staining based flow cytometric analysis (reference value: 57.81 +/- 1.9%). In kind it is functional.
Data set [10] deals with RG2. Kind of data set: Induction of cell cycle arrest in rat RG2 cells assessed as accumulation at G0/G1 phase at 112.4 uM after 12 hrs in presence of TMZ by propidium iodide staining based flow cytometric analysis (reference value: 57.81 +/- 1.9%). In kind it is functional.
Data set [11] deals with DBTRG-05MG. Kind of data set: Induction of apoptosis in human DBTRG-05MG cells assessed as phosphorylated caspace-9 expression at 112.4 uM after 48 hrs in presence of TMZ by Western blot analysis (reference value: 1). It counts as functional.
Data set [12] deals with DBTRG-05MG. In words: Induction of apoptosis in human DBTRG-05MG cells assessed as cleaved caspace-9 expression at 112.4 uM after 48 hrs in presence of TMZ by Western blot analysis (reference value: 1). It counts as functional.
In data set [13] the test system is DBTRG-05MG. Kind of data set: Synergistic cytotoxicity against human DBTRG-05MG cells assessed as synergistic effect index at 89.9 uM after 48 hrs in presence of 412.1 uM TMZ by MTT assay. In kind it is functional. In general terms: Tetrazolium dyes change colour on reduction, which living cells bring about.
The nature of data set [14]: Effect on AKT expression in human DBTRG-05MG cells at 112.4uM after 48 hrs in presence of TMZ by Western blot analysis (reference value: 1). In kind it is functional.
Data set [15] can be described thus: Inhibition of TMZ-induced drug resistance in rat RG2 cells assessed as MDR1 expression at 112.4 uM after 48 hrs by Western blot analysis (reference value: 5.3). In kind it is functional.
The subject of data set [16] is RG2. Kind of data set: Induction of apoptosis in rat RG2 cells assessed as Bcl2 expression at 112.4 uM after 48 hrs by Western blot analysis (reference value: 1). It counts as functional.
Data set [17] deals with RG2. In words: Induction of cell cycle arrest in rat RG2 cells assessed as CDK2 expression at 112.4uM after 48 hrs in presence of TMZ by Western blot analysis (reference value: 1). In kind it is functional.
Data set [18] deals with DBTRG-05MG. Kind of data set: Synergistic cytotoxicity against human DBTRG-05MG cells assessed as synergistic effect index at 112.4 uM after 48 hrs in presence of 103 uM TMZ by MTT assay. It counts as functional.
Data set [19] concerns DBTRG-05MG. In words: Induction of cell cycle arrest in human DBTRG-05MG cells assessed as accumulation at G2/M phase at 112.4 uM after 12 hrs in presence of TMZ by propidium iodide staining based flow cytometric analysis (reference value: 30.08 +/- 0.1%). It counts as functional. A general note: In flow cytometry, cells or beads pass a laser one at a time.
The subject of data set [20] is DBTRG-05MG. In words: Induction of apoptosis in human DBTRG-05MG cells assessed as increase in DNA fragmentation at 112.4 uM after 48 hrs in presence of TMZ by TUNEL assay. It counts as functional, cell-based.
The nature of data set [21]: Effect on AKT expression in human DBTRG-05MG cells at 112.4uM after 48 hrs by Western blot analysis (reference value: 1). In kind it is functional.
Data set [22] concerns DBTRG-05MG. Kind of data set: Induction of apoptosis in human DBTRG-05MG cells assessed as cleaved caspace-9 expression at 112.4 uM after 48 hrs by Western blot analysis (reference value: 1). In kind it is functional.
Data set [23] can be described thus: Effect of MDR1 expression in human DBTRG-05MG cells at 112.4 uM after 48 hrs by Western blot analysis. In kind it is functional.
Data set [24] relates to DBTRG-05MG. Kind of data set: Synergistic cytotoxicity against human DBTRG-05MG cells assessed as combination index at 89.9 uM after 48 hrs in presence of 309 uM TMZ by MTT assay. It counts as functional.
The subject of data set [25] is DBTRG-05MG. In words: Induction of DNA damage in human DBTRG-05MG cells assessed as Chk1 phosphorylation at ser345 residues at 112.4 uM after 48 hrs by Western blot analysis (reference value: 1). It counts as functional.
Data set [26] relates to RG2. In words: Synergistic cytotoxicity against rat RG2 cells assessed as synergistic effect index at 89.9 uM after 48 hrs in presence of 412.1 uM TMZ by MTT assay. It counts as functional.
For data set [27], the system named is DBTRG-05MG. Kind of data set: Induction of apoptosis in human DBTRG-05MG cells assessed as Bcl2 expression at 112.4 uM after 48 hrs by Western blot analysis (reference value: 1). In kind it is functional.
For data set [28], the system named is DBTRG-05MG. In words: Synergistic cytotoxicity against human DBTRG-05MG cells assessed as synergistic effect index at 112.4 uM after 48 hrs in presence of 309 uM TMZ by MTT assay. It counts as functional.
Data set [29] deals with RG2. Kind of data set: Inhibition of ERK phosphorylation at Tyr204 residues in rat RG2 cells at 112.4uM after 48 hrs by Western blot analysis (reference value: 1). It counts as cell-based.
Data set [30] relates to RG2. Kind of data set: Induction of cell cycle arrest in rat RG2 cells assessed as accumulation at G2/M phase at 206 uM after 12 hrs by propidium iodide staining based flow cytometric analysis (reference value: 20.04 +/- 0.55%). It counts as functional.
Data set [31] concerns RG2. In words: Induction of apoptosis in rat RG2 cells assessed as increase in chromatin condensation at 206 uM after 48 hrs by TUNEL assay. It counts as functional, cell-based.
In data set [32] the test system is RG2. In words: Induction of cell cycle arrest in rat RG2 cells assessed as accumulation at S phase at 206 uM after 6 hrs by propidium iodide staining based flow cytometric analysis (reference value: 20.15 +/- 2.44%). In kind it is functional.
Data set [33] can be described thus: Effect on AKT expression in rat RG2 cells at 206 uM after 48 hrs by Western blot analysis (reference value: 1). In kind it is functional.
A short description of data set [34]: Effect on p38 expression in human DBTRG-05MG cells at 206 uM after 48 hrs by Western blot analysis (reference value: 1). It counts as functional.

SMILES strings stand for the structures. Calls of active or inactive are those of the source. The calls are words filed in the database; no cut-off is given here.

Take `C[C@@H]1CC[C@H]2C(C)(C)[C@H]3C[C@@]12CC[C@@]3(C)O` [CEDROL]: the CI is 1.04 in the data set on RG2 [1], 0.64 in the data set on DBTRG-05MG [4], 0.9 in the data set on RG2 [7] and 0.74 in the data set with DBTRG-05MG [24]. In addition, the fold change (FC) in [2] is 0.8; with DBTRG-05MG [3], 4.4; with RG2 [6], 0.8; with RG2 [8], 0.5; in the data set on DBTRG-05MG [11] it was 0.4; in the data set on DBTRG-05MG [12], 3.4. The “fold change (FC)” value is 0.6 in data set [14]; 2 in data set [15]; 1.1 with RG2 [16]; 0.4 in the data set with RG2 [17]; 0.9 in [21]; 1.1 in the data set on DBTRG-05MG [22]. The “fold change (FC)” value is 1.2 in data set [23], 0.9 in the data set with DBTRG-05MG [25], 1.3 in the data set on DBTRG-05MG [27] and 0.9 in the data set on RG2 [29]. Also, the Activity was 1.23 in data set [5], 61.35% with RG2 [9], 61.92% with RG2 [10] and 33.68% in the data set with DBTRG-05MG [19]. Moreover, the Activity_index in the data set on DBTRG-05MG [13] came to 0.76; in the data set with DBTRG-05MG [18], 0.84; with RG2 [26] it was 0.66; in the data set on DBTRG-05MG [28], 0.87. Moreover, in the data set with DBTRG-05MG [20], the outcome was Active.
In the case of `Cn1nnc2c(C(N)=O)ncn2c1=O` [TEMOZOLOMIDE], the Activity in the data set on RG2 [30] amounted to 28.32%; with RG2 [32], 24.46%. Besides, the outcome in the data set with RG2 [31] was Active. Besides, the “fold change (FC)” value in data set [33] was determined as 0.6; in data set [34], 0.9.

These data come from ChEMBL document CHEMBL4699511, “Cedrol, a Sesquiterpene Alcohol, Enhances the Anticancer Efficacy of Temozolomide in Attenuating Drug Resistance via Regulation of the DNA Damage Response and MGMT Expression” (J Nat Prod, 2020).
